# Experimental data: US20080119451A1, “Novel Benzamide Derivatives” (ASTRAZENECA AB, priority 2005, published 2008)
# Tests used:
# recombinant human HDAC1 = biological target: T1, recombinant human HDAC1 (Homo sapiens, UniProt Q13547); experiment: In vitro enzyme assay of recombinant HDAC1 (Fluor de Lys deacetylase assay); type: biochemical; conditions: recombinant human HDAC1 produced in Hi5 insect cells; acetylated histone H4 peptide substrate; read-out: Test (a) IC50
# T1 construct: FLAG (C); made in house; host or cells: Hi5 insect cells
# Procedure: (a) In Vitro Enzyme Assay of Recombinant HDAC1
# HDAC inhibitors were screened against recombinant human HDAC1 produced in Hi5 insect cells. The enzyme was cloned with a FLAG tag at the C-terminal of the gene and affinity purified using Anti-FLAG M2 agarose from SIGMA (A2220).
# The deacetylase assays were carried out in a 50 μl reaction. […] The reaction was stopped by addition of an equal volume (50 μl) Fluor de Lys developer (Biomol) containing Trichostatin A at 2 μM. […] IC50 values for HDAC enzyme inhibitors were determined by performing dose response curves with individual compounds and determining the concentration of inhibitor producing fifty percent decrease in the maximal signal (diluent control).
# HCT116 cells = experiment: In vitro assay of inhibition of proliferation in whole cells (Promega MTS assay); type: cell-based; conditions: Homo sapiens, HCT-116, 72 hours treatment, read-out: Test (b) IC50
# Procedure: (b) In Vitro Assay of Inhibition of Proliferation in Whole Cells
# Inhibition of proliferation in whole cells was assayed using the Promega cell titer 96 aqueous proliferation assay (Promega #G5421). HCT116 cells were seeded in 96 well plates at 1×10^3 cells/well, and allowed to adhere overnight. They were treated with inhibitors for 72 hours. 20 μl of the tetrazolium dye MTS was added to each well and the plates were reincubated for 3 hours. Absorbance was then measured on a 96 well plate reader at […]. The IC50 values for HDAC inhibitors were determined by performing dose response curves with individual compounds and determining the concentration of inhibitor producing fifty percent decrease in maximal signal (diluent control).
# T1 sequence (Q13547 whole entry): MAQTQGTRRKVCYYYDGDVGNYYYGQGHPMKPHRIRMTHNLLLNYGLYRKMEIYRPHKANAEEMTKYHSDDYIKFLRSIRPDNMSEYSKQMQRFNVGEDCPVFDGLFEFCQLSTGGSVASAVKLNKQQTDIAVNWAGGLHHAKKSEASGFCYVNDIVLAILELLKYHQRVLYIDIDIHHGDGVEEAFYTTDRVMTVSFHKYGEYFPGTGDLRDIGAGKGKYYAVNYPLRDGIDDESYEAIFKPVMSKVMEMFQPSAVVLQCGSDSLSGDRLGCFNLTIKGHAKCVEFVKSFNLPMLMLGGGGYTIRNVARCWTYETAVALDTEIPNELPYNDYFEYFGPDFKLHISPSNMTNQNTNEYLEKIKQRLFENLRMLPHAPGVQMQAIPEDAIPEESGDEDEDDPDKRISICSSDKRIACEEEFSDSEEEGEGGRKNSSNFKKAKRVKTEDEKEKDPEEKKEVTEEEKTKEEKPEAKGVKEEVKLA
SMILES,IC50 (recombinant human HDAC1) [nM],IC50 (HCT116 cells) [nM]
"Nc1ccccc1NC(=O)c1ccc(-c2ccccn2)cc1 [Comparator, N-(2-aminophenyl)-4-pyridin-2-ylbenzamide, reference compound]",89,2330
"Cc1cc(CN2CCN(C(C)C)CC2)cnc1-c1ccc(C(=O)Nc2ccccc2N)cc1 [Example 2, N-(2-aminophenyl)-4-{5-[(4-isopropylpiperazin-1-yl)methyl]-3-methylpyridin-2-yl}benzamide]",19,238
"Cc1cc(CN2CCC2)cnc1-c1ccc(C(=O)Nc2ccccc2N)cc1 [Example 4, N-(2-aminophenyl)-4-[5-(azetidin-1-ylmethyl)-3-methylpyridin-2-yl]benzamide]",21,310
